Laboratory results as given in patent US12280023B2, “Fluorophenyl beta-hydroxyethylamines and their use in the treatment of hyperglycaemia” (ATROGI AB, priority 2017, dated 2025).
Counter-ions that a name gives are not always drawn.

What was measured:
[1] = test system: Intracellular cAMP levels; assay: Measurement of intracellular cAMP levels in differentiated L6 cells; type: cell-based; settings: Rattus norvegicus, L6, 0.25 h, agonist final concentration 1×10^−5, 15 min, alpha screen cAMP kit, relative to isoproterenol, read-out: Biological example 2: intracellular cAMP activity compared to that of isoproterenol
Experimental: (§1) L6-myoblasts were grown in Dulbecco's Modified Eagle's Medium (DMEM) containing 4.5 g/l glucose supplemented with 10% fetal bovine serum, 2 mM L-Glutamine, 50 U/ml penicillin, 50 μg/ml streptomycin and 10 mM HEPES. Cells were plated at 1×10^5 cells per ml in 24-well plates. After reaching 90% confluence the cells were grown in medium containing 2% FBS for 7 days where upon cells differentiated into myotubes.
Differentiated cells were serum-starved over night and stimulated with agonist, final concentration 1×10^−5, for 15 min in stimulation buffer (HBSS supplemented with 1% BSA, 5 mM HEPES and 1 mM IBMX, pH 7.4). The medium was then aspirated and to end the reaction 100 μL of 95% EtOH was added to each well of a 24-well plate and cells were kept in −20° C. over night. The EtOH was let to evaporate and 500 μL of lysis buffer (1% BSA, 5 mM HEPES and 0.3% Tween-20, pH 7.4) was added to each well before put in −80° C. for 30 min and then kept in −20° C. Intracellular cAMP levels were detected using an alpha screen cAMP kit (6760635D from Perkin Elmer). The activity for each compound is compared to that of isoproterenol.

L6-myotubes = assay: Glucose uptake (3H-2-deoxy-glucose) in differentiated L6-myotubes; type: cell-based; settings: agonist final concentration 1×10^−5, 50 nM 3H-2-deoxy-glucose, relative to isoproterenol, read-out: Biological example 1: glucose uptake activity compared to that of isoproterenol
Experimental: as §1
Differentiated L6-myotubes were serum-starved over night in medium containing 0.5% fatty-acid free BSA and stimulated with agonist, final concentration 1×10^−5. After 1 h 40 min cells were washed with warm, glucose free medium or PBS and another portion of agonist was added to glucose free medium. After 20 min the cells were exposed to 50 nM ^3H-2-deoxy-glucose for another 10 min before washed in ice cold glucose free medium or PBS and lysed in 0.2 M NaOH for 1 h in 60° C.

Compound | Emax [1] [%] | Emax (L6-myotubes) [%]
CC(C)(C)NC[C@H](O)c1ccc(F)c(O)c1 [Example 23, (R)-5-(2-(tert-Butylamino)-1-hydroxyethyl)-2-fluorophenol acetate] | 50 to 75 | > 75
CC(C)(C)CNC[C@H](O)c1cccc(F)c1 [Example 29, (R)-1-(3-Fluorophenyl)-2-(neopentylamino)ethan-1-ol hydrochloride] | < 25 | 25 to 50
CC(C)(C)NC[C@H](O)c1ccccc1F [Example 17, (R)-2-(tert-Butylamino)-1-(2-fluorophenyl)ethan-1-ol] | < 25 | 50 to 75
CCCCNCC(O)c1ccc(F)c(F)c1 (centres unmarked) [Example 2, 2-(Butylamino)-1-(3,4-difluorophenyl)ethan-1-ol] | < 25 | 50 to 75
CCCCNC[C@H](O)c1ccc(F)cc1O [Example 20, (R)-2-(2-(Butylamino)-1-hydroxyethyl)-5-fluorophenol acetate] | < 25 | > 75
Cc1c(F)cccc1[C@@H](O)CNC(C)(C)C [Example 32, (R)-2-(tert-butylamino)-1-(3-fluoro-2-methylphenyl)ethan-1-ol] | < 25 | > 75
CC1(NC[C@H](O)c2cccc(F)c2)CCC1 [Example 21, (R)-1-(3-fluorophenyl)-2-((1-methylcyclobutyl)amino)ethan-1-ol] | 25 to 50 | > 75
CCC[C@@H](C)NC[C@H](O)c1cccc(F)c1 [Example 12, (R)-1-(3-fluorophenyl)-2-(((R)-pentan-2-yl)amino)ethan-1-ol] | < 25 | > 75
CC(C)(C)NC[C@H](O)c1ccc(F)c(N)c1F [Example 31, (R)-1-(3-amino-2,4-difluorophenyl)-2-(tert-butylamino)ethan-1-ol hydrochloride] | < 25 | > 75
CC(C)(C)NC[C@H](O)c1ccc(F)cc1O [Example 19, (R)-2-(2-(tert-Butylamino)-1-hydroxyethyl)-5-fluorophenol acetate] | < 25 | 50 to 75
CCCCNC[C@H](O)c1ccccc1F [Example 18, (R)-2-(Butylamino)-1-(2-fluorophenyl)ethan-1-ol] | < 25 | > 75
CCCCNCC(O)c1cc(F)cc(F)c1 (centres unmarked) [Example 1, 2-(Butylamino)-1-(3,5-difluorophenyl)ethan-1-ol] | < 25 | 50 to 75
CCCCNCC(O)c1ccc(F)c(N)c1F (centres unmarked) [Example 7, 1-(3-Amino-2,4-difluorophenyl)-2-(butylamino)ethan-1-ol] | < 25 | > 75
CCC[C@H](C)NC[C@H](O)c1ccc(F)cc1 [Example 11, (R)-1-(4-Fluorophenyl)-2-(((S)-pentan-2-yl)amino)ethan-1-ol] | < 25 | 25 to 50
CCC[C@@H](C)NC[C@H](O)c1ccc(F)cc1 [Example 10, (R)-1-(4-Fluorophenyl)-2-(((R)-pentan-2-yl)amino)ethan-1-ol] | < 25 | 50 to 75
CC(C)(C)NC[C@H](O)c1cccc(N)c1F [Example 27, (R)-1-(3-Amino-2-fluorophenyl)-2-(tert-butylamino)ethan-1-ol] | 25 to 50 | > 75

Compound | Emax [1] [%] | Emax (L6-myotubes) [%]
CCCCNC[C@H](O)c1cccc(O)c1F [Example 26, (R)-3-(2-(Butylamino)-1-hydroxyethyl)-2-fluorophenol] | 25 to 50 | > 75
CC(C)(C)NC[C@H](O)c1cccc(F)c1 [Example 5, (R)-2-(tert-Butylamino)-1-(3-fluorophenyl)ethan-1-ol] | < 25 | > 75
CC1(NC[C@H](O)c2cccc(F)c2)CC1 [Example 22, (R)-1-(3-fluorophenyl)-2-((1-methylcyclopropyl)amino)ethan-1-ol] | < 25 | > 75
CCCCNC[C@H](O)c1ccc(F)cc1 [Example 3, (R)-2-(Butylamino)-1-(4-fluorophenyl)ethan-1-ol] | < 25 | 25 to 50
CC(C)(C)NC[C@H](O)c1cccc(O)c1F [Example 25, (R)-3-(2-(tert-Butylamino)-1-hydroxyethyl)-2-fluorophenol] | 50 to 75 | 50 to 75
CCCCNC[C@H](O)c1cccc(F)c1 [Example 4, (R)-2-(Butylamino)-1-(3-fluorophenyl)ethan-1-ol] | < 25 | > 75
CC(C)(C)NC[C@H](O)c1cccc(F)c1F [Example 15, (R)-2-(tert-Butylamino)-1-(2,3-difluorophenyl)ethan-1-ol] | 25 to 50 | > 75
CCCCNCC(O)c1cc(F)c(N)c(F)c1 (centres unmarked) [Example 6, 1-(4-Amino-3,5-difluorophenyl)-2-(butylamino)ethan-1-ol] | > 75 | > 75
CCCCNC[C@H](O)c1ccc(F)c(O)c1 [Example 24, (R)-5-(2-(Butylamino)-1-hydroxyethyl)-2-fluorophenol acetate] | < 25 | > 75
CCC[C@H](C)NC[C@H](O)c1cccc(F)c1 [Example 13, (R)-1-(3-fluorophenyl)-2-(((S)-pentan-2-yl)amino)ethan-1-ol] | < 25 | 50 to 75
CCCCNCC(O)c1ccc(F)c(NC(C)=O)c1F (centres unmarked) [Example 8, N-(3-(2-(Butylamino)-1-hydroxyethyl)-2,6-difluorophenyl)acetamide] | < 25 | 25 to 50
O[C@@H](CNC1(C(F)(F)F)CC1)c1cccc(F)c1 [Example 30, (R)-1-(3-fluorophenyl)-2-O-(trifluoromethyl)cyclopropyl)amino)ethan-1-ol hydrochloride] | < 25 | 50 to 75
CCCCNC[C@H](O)c1cccc(N)c1F [Example 28, (R)-1-(3-Amino-2-fluorophenyl)-2-(butylamino)ethan-1-ol dihydrochloride] | < 25 | 50 to 75
CCCCNC[C@H](O)c1cccc(F)c1F [Example 16, (R)-2-(Butylamino)-1-(2,3-difluorophenyl)ethan-1-ol] | < 25 | > 75
CCCC(C)(C)NC[C@H](O)c1cccc(F)c1 [Example 14, (R)-1-(3-Fluorophenyl)-2-((2-methylpentan-2-yl)amino)ethan-1-ol] | < 25 | > 75
